Measurements reported in patent US7301070B2, “Plant fatty acid synthases and use in improved methods for production of medium-chain fatty acids” (Calgene LLC, priority 1997, dated 2007).

Assays:
[1] = system: fatty acid synthesis in Brassica seed extracts; experiment: In vitro fatty acid synthesis assay in seed extracts preincubated with cerulenin; type: biochemical
Description: (§1) Seed extracts were prepared from developing seeds of nontransgenic controls or transgenic Brassica expressing chKAS A-2-7 as described in Slabaugh et al. (Plant Journal, 1998 in press) and Leonard et al. (Plant Journal, 1998, in press). In vitro fatty acid synthesis assays were performed as described by Post-Beittenmiller (J. Biol. Chem. (1991), 266:1858-1865). Extracts were concentrated by ammonium sulfate precipitation and desalting using P-6 columns (Bio-Rad, Hercules, Calif.). Reactions (65 μl) contained 0.1M Tris/HCl (pH 8.0), 1 mM dithiothreitol, […] recombinant spinach ACP1, 1 mM NADH, 2 mM NADPH, 50 μM malonyl-CoA, 10 μM [1-^14C]acetyl-CoA (50 mCi/mmol), 1 mg/ml BSA, and 0.25 mg/ml seed protein. Selected seed extracts were preincubated with cerulenin at 23° C. for 10 min. Reaction products were separated on an 18% acrlamide gel containing 2.25M urea, electroblotted onto to nitrocellulose and quntitated by phosporimaging using Image QuaNT software (Molecular Dynamics, Sunnyvale, Calif.). Authentic acyl-ACPs were run in parallel, immunoblotted and finally detected by anti-ACP serum to confirm fatty acid chain lengths.

Ch KAS A-2-7 = experiment: In vitro fatty acid synthesis assay, seed extracts of transgenic Brassica expressing chKAS A-2-7; type: biochemical, Cuphea hookeriana; conditions: conclusion from FIG. 22 data
Description: as §1

Synthase I (KAS I) = conditions: cited from earlier work
Synthase II (KAS II) = conditions: higher concentrations than KAS I; cited from earlier work
Synthase III = conditions: cited from earlier work

Structure (SMILES): C/C=C/C/C=C/CCC(=O)[C@H]1O[C@H]1C(N)=O [cerulenin]
- inhibition of extension of the spinach-ACP by cerulenin ([1]; seed extracts from transgenic lines compared with nontransgenic control Brassica): much less inhibited
- synthesis of longer chain fatty acids after pretreatment of extracts with cerulenin ([1]; transgenic (5401-9) and nontransgenic control seed extracts, preincubated at 23° C. for 10 min): markedly reduced
- sensitivity of chKAS A-2-7 to cerulenin (Ch KAS A-2-7): cerulenin-resistant
- concentration of cerulenin at which KAS I is sensitive to inhibition (Synthase I (KAS I)): 1 µM
- concentration of cerulenin at which KAS II is inhibited (Synthase II (KAS II)): 50 µM
- sensitivity of synthase III to cerulenin inhibition (Synthase III): insensitive to inhibition by cerulenin
